# Source: patent publication US12171835B2, “Furan-aspidospermine dimer or pharmaceutically acceptable salt thereof, and preparation method, use and pharmaceutical composition” (Kunming Inst. of Botany, Chinese Acad. of Sciences, priority 2021, dated 2024)
# Experiments:
# [1] = tested on: bone marrow-derived macrophages (BMMs); assay: Activated immune test: ARG1 activity / M2 polarization in IL-4-stimulated BMMs; format: cell-based, mouse; conditions: FIG. 1C, FIG. 2
# [2] = tested on: bone marrow-derived macrophages (BMMs); assay: as above; format: cell-based, mouse; conditions: for inhibition of the expression of arginase induced by IL-4 in macrophages: BMMs pretreated with drug (1 μM), IL-4 stimulation 12 h, absorbance at 540 nm, FIG. 1
# Protocol: Activated immune test: bone marrow-derived macrophages (BMMs), as primary cells isolated from bone marrow and subjected to induced culture that can well reflect functions of the macrophages, are commonly used cells to study the functions of the macrophages. A mouse femur bone marrow was isolated and cultured in a medium containing an mCSF factor for 6-7 d to obtain mature BMMs; stimulation with IL-4 for 12 h can induce polarization of the BMMs to an immunosuppressive M2 type with high expression of ARG1; after the ARG1 protein was extracted, arginine hydrolysis was conducted in vitro, and color development was further conducted by reacting α-isonitrosopropiophenone with a hydrolyzate urea; an absorbance was measured at a wavelength of 540 nm as a marker of an ARG1 activity. A specific process was as follows: cells were pretreated with drugs (1 μM) (including the CPLD, CPLL, TBYA, MDK, HMD, compounds 1-3 and compounds 5-7); IL-4 stimulation was conducted for 12 h, followed by washing with PBS, and cells were lysed with a lysis buffer containing a protease inhibitor, and a total cell protein was obtained; after adding […] to 0.4 mM Mn^2, the total cell protein was heated at 55° C. for 10 min to fully activate an arginase ARG1. 0.5 mM arginine was added for incubation at 37° C. for 1 h to 2 h to fully hydrolyze the arginine. An acid solution containing sulfuric acid and phosphoric acid was added to stop the reaction, a 9% α-isonitrosopropiophenone ethanol solution was added, followed by heating at 95° C. for 15 min to 30 min to develop color.
# melanoma = assay: CD8+ T cell-depleted melanoma model (anti-CD8 antibodies); format: in vivo, mice; conditions: FIG. 5M to N
# Excerpt: (§1) Further immunofluorescence staining experiments also find that the CPLD can increase the proportion of CD8 T cells and promote the expression of Granzyme B (L). Further, mice were continuously injected with anti-CD8 antibodies to delete CD8+ T cells in the mice, to construct a melanoma model, followed by investigation of an anti-tumor activity of the compounds.
# [3] = tested on: CD8+ T cells and other immune cells in the tumor; assay: FACS analysis / intracellular staining of immune cells in the tumors; format: in vivo, mouse
# Excerpt: Validation of improving and enhancing CD8^+ T cell function: through FACS analysis, the test results of compound 1 are shown in FIG. 3. […] In addition, the compound 1 is able to down-regulate a proportion of CD206^+ macrophages (FIG. 4).
# as §1
# CD8 T cells = assay: immunofluorescence staining of tumors; format: in vivo, mouse; conditions: FIG. 5L
# Excerpt: as §1
# tumor = assay: nude mouse tumor model (CPLD); format: in vivo; conditions: FIG. 5M to N
molecule,measurement,setting,value
taberyunine A [TBYA],"inhibition of M2 polarization of the macrophages, concentration dependence",[1],inhibit M2 polarization of the macrophages in a concentration-dependent manner
same,inhibition of the expression of arginase induced by IL-4 in macrophages,[2],significantly inhibit
Ibogabisindole [reference compound],activity of inhibiting M2 polarization in macrophages,[2]; comparison substances lacking the furan-aspidospermine dimer skeleton,"neither the furan-ringed aspidospermine, Corynantheine, nor the furan-ringed aspidospermine, Ibogabisindole, have the activity"
"CC[C@@]12C=CCN3CC[C@]4(C(=C(C(=O)OC)C1)Nc1cc5c(cc14)[C@H]1[C@@H](O5)[C@H](O)[C@]4(CC)CC(C(=O)OC)=C5Nc6c(cc(O)c(OC)c6OC)[C@@]56CCN1[C@H]46)[C@H]32 [CPLD, conophyllidine]",anti-tumor effect,melanoma,significantly reduced
same,effect on CD4 T cells,[3]; FACS analysis,no significant effect
same,effect on Treg cells (proportion),[3]; FACS analysis,no effect
same,proportion of CD8+ T cells in the tumor,[3]; FACS analysis,significantly increase
same,expression of Granzyme B in CD8+ T cells,[3]; intracellular staining,enhance
same,expression of IFNγ in CD8+ T cells,[3]; intracellular staining,enhance
same,expression of TNFα in CD8+ T cells,[3]; intracellular staining,enhance
same,function of the CD8+ T cells,[3]; intracellular staining,promote
same,expression of Granzyme B,CD8 T cells,promote
same,proportion of CD8 T cells,CD8 T cells,increase
same,"inhibition of M2 polarization of the macrophages, concentration dependence",[1],inhibit M2 polarization of the macrophages in a concentration-dependent manner
same,anti-tumor effect,tumor,significantly reduced
same,inhibition of the expression of arginase induced by IL-4 in macrophages,[2],significantly inhibit
"CC[C@@]12CC(C(=O)OC)=C3Nc4cc5c(cc4[C@@]34CCN(C[C@H]3O[C@H]31)[C@@H]24)[C@@H]1[C@H](O5)[C@@H](O)[C@@]2(CC)CC(C(=O)OC)=C3Nc4c(cc(O)c(OC)c4OC)[C@@]34CCN1[C@@H]24 [CPLL, conophylline]","inhibition of M2 polarization of the macrophages, concentration dependence",[1],inhibit M2 polarization of the macrophages in a concentration-dependent manner
same,inhibition of the expression of arginase induced by IL-4 in macrophages,[2],significantly inhibit
melodinine K [MDK],"inhibition of M2 polarization of the macrophages, concentration dependence",[1],inhibit M2 polarization of the macrophages in a concentration-dependent manner
same,inhibition of the expression of arginase induced by IL-4 in macrophages,[2],significantly inhibit
19′-hydroxymelodinineK [HMD],"inhibition of M2 polarization of the macrophages, concentration dependence",[1],inhibit M2 polarization of the macrophages in a concentration-dependent manner
same,inhibition of the expression of arginase induced by IL-4 in macrophages,[2],significantly inhibit
